From patent US20040053885A1, “Use of hyaluronic acid derivatives for the prevention of inflammatory arthritis” (priority 2000, published 2004)

Key:
[1] = tested on: antigen-induced arthritis (knee joint); experiment: Antigen-induced arthritis of rats: lateral joint diameter of the right knee joint after intraarticular injection; assay type: in vivo, rat (female Wistar); parameters: Joint diameter (right), Day 0: unit not given here; settings: for Joint diameter (right), Day 0: day 0, joint diameter before induction of arthritis (baseline); for Joint diameter (right), day 1, difference with respect to day 0 / Joint diameter (right), measured value on day 1: day 1 after induction; for Increase of joint diameter (right) from day 0 to day 1: day 1, increase after induction, before treatment takes effect
Experimental: The animal model employed, antigen-induced arthritis of rats, is a well established animal model which reflects the mechanisms of rheumatoid arthritis (RA) very well. […] Female Wistar rats are employed for this experiment. At an interval of one week, the animals are subcutaneously preimmunized with 0.1 mg of methylalbumin (mBSA) in Freund's complete adjuvant. Two weeks after the second immunization, 0.1 mg of mBSA is injected intraarticularly into the […] knee joint. This injection induces arthritis, which persists for weeks after an acute phase. One day after the induction of the arthritis, the treatment is begun with sulfated hyaluronic acid solution or with high molecular weight hyaluronic acid (MW=1,800 kD), which are injected intraarticularly into the knee joint. The immunization of the animals was effected at an interval of 7 days. In the first immunization, a total of four subcutaneous injections of 0.25 ml each (corresponding to 0.1 mg of methylalbumin in Freund's complete adjuvant) were effected on both sides of the vertebral column at the level of the shoulder blade and above the hip (each at about 1.5 cm distance from the spines of the vertebrae). In the 2nd immunization, 3 depots of 0.3 ml of solution each were introduced; one exactly between the two shoulder blades and two at the level of the abdomen on both sides paravertebrally. The induction of arthritis was effected two weeks after the 2nd immunization by […] injection of 0.05 ml each of a 10 mg/ml solution of mBSA in physiological saline into the respective right knee joint. On the day after induction of arthritis, 0.05 ml each of a formulation containing sulfated HA was injected into the right knee joint of the 20 animals of the experimental group (use of an insulin syringe, thin cannula, 0.35×40 mm). Thereafter, injection was effected once a week (long-term group). The lateral joint diameter of all animals was measured by means of a distance meter (Matatuyo) prior to and 1, 4 and 8 days after the induction of arthritis and then every week until the experiment was completed. The animals were also weighed each time. On the 7th day, 10 animals of the experimental group and 10 animals of the control group were killed. The animals were put down by ether anesthesia, and the sacrifice of the remaining animals was effected 1 week after the last injection of a formulation containing sulfated HA into the right knee joint.

[2] = tested on: antigen-induced arthritis (knee joint); experiment: as above; assay type: in vivo, rat (female Wistar); settings: short-term experiment, 0.05 ml intraarticular on day 1
[3] = long-term experiment, intraarticular injection day 1, then once a week
[4] = short-term experiment, 0.05 ml intraarticular on day 1

Substance	Joint diameter (right), Day 0 ([1]; long-term experiment)	Joint diameter (right), day 1, difference with respect to day 0 ([1]; long-term experiment)	Joint diameter (right), measured value on day 1 ([1]; long-term experiment)	Decrease or increase of joint diameter (right) after the injection on day 1, Day 4 [1, 3]	Decrease or increase of joint diameter (right) after the injection on day 1, Day 8 [1, 3]	Decrease or increase of joint diameter (right) after the injection on day 1, Day 15 [1, 3]	Decrease or increase of joint diameter (right) after the injection on day 1, Day 22 [1, 3]	Decrease or increase of joint diameter (right) after the injection on day 1, Day 29 [1, 3]	Decrease or increase of joint diameter (right) after the injection on day 1, Day 4 [1, 4]	Joint diameter (right), Day 0 ([1]; short-term experiment)	Increase of joint diameter (right) from day 0 to day 1 ([1]; short-term experiment)	Decrease or increase of joint diameter (right) after the injection on day 1, Day 8 [2]	Joint diameters (as a measure of the inflammatory swelling), result in words ([1]; long-term experiment over 3 weeks)
hyaluronic acid [HA, reference compound]	926.0	+206	1132.9	+27	−97	−140	−144	−134	+18	913.2	+206	−45	
sulfated hyaluronic acid [Sulfated HA]	927.6	+226	1153.9	−4	−127	−203	−212	−231	+20	867.4	+228	−118	significant decrease of the joint diameters
